Like-named read-outs stand apart in the source and are kept apart here. Blank lines part the entries; values can stand above or below the compound they belong to.
Legend:
[1] = Pharmacokinetic study of the Q-markers in beagle dogs; conditions: dog
Method: An ACQUITY UPLC system from Waters was used for chromatography separation, equipped with a Waters Cortecs C18 column (1.7 μm, 2.1 mm × 50 mm) operated at a flow rate of 0.30 mL/min. The column temperature and auto-sampler temperature were set as 45 °C and 4 °C, respectively. The mobile phases were 10 mM ammonium acetate solution (pH 5.0 by acetic acid) (A) and acetonitrile (B) and the gradient elution used was as follows: 30–39% B from 0–3.3 min, 39–95% B from 3.3–5.4 min, 95% B from 5.4–7.4 min, 95–30% B from 7.4–13.5 min, and 30% B from 13.5–16.0 min. The injection volume was 3 μL. The AB SCIEX Qtrap™ 6500 LC-MS/MS system with electron spray ionization (ESI) source in multiple reaction monitoring (MRM) mode was used for MS analysis. The detection was performed under the following conditions: source temperature (at set point) at 550.0 °C, positive ion mode, GS1 at 40 psi, GS2 at 40 psi, CUR at 45 psi, CXP at 15 V, DP at 100 V, and EP at 10 V. Quantitative analysis of analytes in MRM mode was used to determine the transition of precursor ions to specific product ions (m/z): tetrahydropalmatine, m/z […] [M + H]+ → m/z 229.0 (collision energy, CE: 17 V), corydaline, m/z […] (CE: 17 V), protopin, m/z […] [M + H]+ → m/z 227.1 (CE: 23 V), allocryptopine, m/z […] [M + H]+ → m/z 373.2 (CE: 17 V), and byakangelicin, m/z 389.2 [M + H]+ → m/z 363.1 (CE: 17 V). The data were processed using MultiQuant™ 2.1 software purchased from SCIEX.
The standard solutions of tetrahydropalmatine, corydaline, protopin, α-allocryptopine, and byakangelicin were prepared by dissolving them in acetonitrile to obtain a mixed standard stock solution, which was further diluted with acetonitrile to prepare a series of different concentration gradient mixed standard solutions. An internal standard solution of 25 ng/mL was prepared from betamethasone solution (500 μg/mL) diluted with acetonitrile. Blank dog blood was collected through intravenous blood sampling, and plasma was obtained by centrifugation. To prepare the standard plasma sample, 25 μL of the mixed standard solution was added to 100 μL of blank plasma, and 400 μL of acetonitrile was added and vortexed for protein precipitation. The supernatant was acquired by centrifugation and blown dry with nitrogen. Then, 100 μL of acetonitrile was added to the dried supernatant, and the resulting solution was mixed to gain the standard plasma sample. Different mixed standard solution including a serial of concentrations of tetrahydropalmatine: 0.625–25 ng/mL, corydaline: 0.625–25 ng/mL, protopin: 0.1–4 ng/mL, α-allocryptopine: 0.1–4 ng/mL, byakangelicin: 18.75–750 ng/mL were applied to prepare standard plasma sample and quality control (QC) samples of plasma as follows: 1.25, 5, and 20 ng/mL for tetrahydropalmatine and corydaline, 0.2, 0.8, and 3.2 ng/mL for protopin and α-allocryptopine, and 37.5, 150, and 600 ng/mL for byakangelicin.
For pharmacokinetic study, six beagle dogs were used and housed in a professional animal breeding room with a relative humidity of 55–60% and a temperature of 25 °C for one week. The experimental operation was carried out in accordance with ethical requirements for animal experiments and approved by the Institutional Animal Care and Use Committee of the School of Pharmacy, Fudan University. The dogs had free access to drinking water and were fasted for 24 h before the experiment. The dogs were randomly divided into two groups, one group receiving an oral dose of 12 tablets with brand A (tetrahydropalmatine 2.5 mg, corydaline 0.963 mg, protopin 1.896 mg, α-allocryptopine 0.917 mg, and byakangelicin 2.783 mg), while the other group were given an intravenous dose of 2 mL of normal saline containing tetrahydropalmatine 19.75 μg, corydaline 4.54 μg, protopin 168.062 μg, α-allocryptopine 297.16 μg, and byakangelicin 78.68 μg. Blood samples of 2 mL were taken at 15, 30, 45, 60, 90, 120, 150, 180, 240, 360, 480, 720, and 1440 min after dosing.

[2] = External validation of IVIVC model with another brand of YZTs; conditions: beagle, dog, blood, po
Text: (§1) In order to further apply the identified in vivo correlated dissolution conditions to different batches of YZTs, another brand of YZTs was selected for external validation of the dissolution conditions and IVIVC model results. The dissolution data of different brands in the identified media were input into the established IVIVC model to obtain the predicted blood concentration–time curve and to compare the PE% between the predicted value and the actual value.

[3] = dog, in vivo
Text: The Phoenix WinNonlin IVIVC tool was utilized to evaluate the relationship between in vivo drug dissolution rate and blood drug concentration, which utilizes the Unit Impulse Response (UIR) function for this purpose. By using intravenous administration as the input for the unit impulse response, the influence of drug absorption can be eliminated. The obtained UIR function will be utilized for the deconvolution of pharmacokinetic data to obtain the curve of cumulative drug absorption over time [50]. (8) Y(t)=A×exp[Alpha×(t×Ka−tlag)] in which Y(t) is unit impulse response, A is the coefficient value, Alpha is the exponential value, Ka is the absorption rate constant, tlag is the lag time.

[4] = dog, in vivo; remark: listed apart in the source
Text: as §1

[5] = test system: Caco-2 cells

AUC(0-inf) ([1]; beagle, plasma, iv): 11.7 ng·h/mL
AUC(0-t) ([1]; beagle, plasma, iv): 11.1 ng·h/mL
Cmax ([1]; beagle, plasma, iv): 11.8 ng/mL
Tmax ([1]; beagle, plasma, iv): 5 min
half-life ([1]; beagle, plasma, iv): 46.5 min
AUC ([1]; beagle, plasma, po): 59.7 ng·h/mL
AUC(0-inf) ([1]; beagle, plasma, po): 65.3 ng·h/mL
AUC(0-t) ([1]; beagle, plasma, po): 59.7 ng·h/mL
Cmax ([1]; beagle, plasma, po): 27.3 ng/mL
Tmax ([1]; beagle, plasma, po): 60 min
bioavailability ([1]; beagle, plasma, po): 3.81%
half-life ([1]; beagle, plasma, po): 197 min
AUC [2]: 54.5 ng·h/mL
Cmax [2]: 29.6 ng/mL
Compound: COc1c2ccoc2c(OC[C@@H](O)C(C)(C)O)c2oc(=O)ccc12 [Byakangelicin, byakangelicin]

AUC(0-inf) ([1]; beagle, plasma, iv): 7.18 ng·h/mL
AUC(0-t) ([1]; beagle, plasma, iv): 6.5 ng·h/mL
Cmax ([1]; beagle, plasma, iv): 5.01 ng/mL
Tmax ([1]; beagle, plasma, iv): 5 min
half-life ([1]; beagle, plasma, iv): 237 min
AUC ([1]; beagle, plasma, po): 74.2 ng·h/mL
AUC(0-inf) ([1]; beagle, plasma, po): 81.1 ng·h/mL
AUC(0-t) ([1]; beagle, plasma, po): 74.2 ng·h/mL
Cmax ([1]; beagle, plasma, po): 24.8 ng/mL
Tmax ([1]; beagle, plasma, po): 90 min
bioavailability ([1]; beagle, plasma, po): 5.38%
half-life ([1]; beagle, plasma, po): 525 min
AUC [2]: 34.3 ng·h/mL
Cmax [2]: 12 ng/mL
Compound: COc1cc2c(cc1OC)[C@H]1[C@@H](C)c3ccc(OC)c(OC)c3CN1CC2 [Corydaline, corydaline]

UIR parameter A1, Estimate ([3]; beagle): 0.04 ng/mL
UIR parameter Ka, Estimate ([3]; beagle): 1.28 h⁻¹
UIR parameter Tlag, Estimate ([3]; beagle): 0.40 h
UIR parameter alpha1, Estimate ([3]; beagle): 1.30 h⁻¹
AUC(0-inf) ([1]; beagle, plasma, iv): 10.9 ng·h/mL
AUC(0-t) ([1]; beagle, plasma, iv): 9.87 ng·h/mL
Cmax ([1]; beagle, plasma, iv): 11.4 ng/mL
Tmax ([1]; beagle, plasma, iv): 5 min
half-life ([1]; beagle, plasma, iv): 400 min
AUC ([1]; beagle, plasma, po): 136 ng·h/mL
AUC(0-inf) ([1]; beagle, plasma, po): 137 ng·h/mL
AUC(0-t) ([1]; beagle, plasma, po): 136 ng·h/mL
Cmax ([1]; beagle, plasma, po): 45.7 ng/mL
Tmax ([1]; beagle, plasma, po): 90 min
bioavailability ([1]; beagle, plasma, po): 10.8%
half-life ([1]; beagle, plasma, po): 234 min
AUC [2]: 59.9 ng·h/mL
Cmax [2]: 16.4 ng/mL
Compound: COc1cc2c(cc1OC)[C@@H]1Cc3ccc(OC)c(OC)c3CN1CC2 [Tetrahydropalmatine, tetrahydropalmatine]

Compound: COc1ccc2c(c1OC)CN(C)CCc1cc3c(cc1C(=O)C2)OCO3 [α-allocryptopine]
AUC(0-inf) ([1]; beagle, in vivo, iv): 39.6 ng·h/mL
AUC(0-t) ([1]; beagle, in vivo, iv): 35.9 ng·h/mL
Cmax ([1]; beagle, in vivo, iv): 32.8 ng/mL
Tmax ([1]; beagle, in vivo, iv): 5 min
half-life ([1]; beagle, in vivo, iv): 331 min
AUC ([1]; beagle, in vivo, po): 8.31 ng·h/mL
AUC(0-inf) ([1]; beagle, in vivo, po): 9.12 ng·h/mL
AUC(0-t) ([1]; beagle, in vivo, po): 8.31 ng·h/mL
Cmax ([1]; beagle, in vivo, po): 3.51 ng/mL
Tmax ([1]; beagle, in vivo, po): 60 min
bioavailability ([1]; beagle, in vivo, po): 7.5%
half-life ([1]; beagle, in vivo, po): 503 min
AUC [2]: 2.04 ng·h/mL
Cmax [2]: 0.5 ng/mL

Compound: protopine
Solubility, 0.1 M HCl (pH 1.2): 4.700 ± 0.384 mg/mL
Solubility, Acetate Buffer (pH 4.5): 5.403 ± 0.378 mg/mL
Solubility, Phosphate Buffer (pH 6.8): 0.535 ± 0.0172 mg/mL
Observed AUC [4]: 205.15
Observed Cmax [4]: 1.15 ng/mL
Predicted AUC [4]: 218.10
Predicted Cmax [4]: 1.26 ng/mL
UIR parameter A1, Estimate [3]: 0 ng/mL
UIR parameter Ka, Estimate [3]: 1.36 h⁻¹
UIR parameter Tlag, Estimate [3]: 0.44 h
UIR parameter alpha1, Estimate [3]: 1.35 h⁻¹
Bioavailability (absolute oral) ([1]; in vivo): 1.35%
Cl/F ([1]; in vivo, iv): 0.03 L/h
Cmax ([1]; in vivo, iv): 12.44 ng/mL
T1/2 ([1]; in vivo, iv): 274.64 min
Tmax ([1]; in vivo, iv): 5 min
Vz/F ([1]; in vivo, iv): 0.22 L
Cl/F ([1]; in vivo, po): 0.21 L/h
Cmax ([1]; in vivo, po): 1.63 ng/mL
Observed AUC ([1]; in vivo, po): 205.15
Observed Cmax ([1]; in vivo, po): 1.63 ng/mL
T1/2 ([1]; in vivo, po): 319.26 min
Tmax ([1]; in vivo, po): 90 min
Vz/F ([1]; in vivo, po): 1.64 L
In Vitro Caco-2 Cell Permeability (Peff) [5]: 7.49e-06 ± 8.03e-08 cm/s

Source: publication PMC11359531, “Establishment of Dissolution Test Method for Multi-Components in Traditional Chinese Medicine Preparations Based on In Vitro–In Vivo Correlation” (Pharmaceuticals, 2024)
